The values below come from patent publication US20200149049A1, “METHODS AND COMPOSITIONS RELATING TO ANTI-CALCIFICATION” (THE BRIGHAM AND WOMEN'S HOSPITAL, INC., priority 2017, published 2020).

What all share (format): cell-based, human
Data set [1] concerns hCASMCs. Put plainly: Gene expression assay (TaqMan real-time PCR) in hCASMCs. How it is done:
FIG. 32 depicts graphs of the effects of PPAR agonists on gene expressions in hCASMCs. HCASMCs were maintained under the same condition with FIG. 23A-23C. Next day after cell seeding, medium was changed to 1% FCS DMEM. After 24 hours, hCASMCs were stimulated by 100 nM K-877 (K877), 100 nM GW-501516 (GW) and 100 nM rosiglitazone (Rosi). After 18 hours, the mRNA samples were isolated by TRIzol Reagent.
FIGS. 33A-33D depict the effects of CROT silencing on CDNK1A (FIG. 33A), DUSP1 (FIG. 33B), HMOX1 (FIG. 33C) and SAT1 (FIG. 33D) gene expression in hCASMCs. HCASMCs were maintained under the same condition with FIGS. 23A-23C. The mRNA samples from hCASMCs were isolated using TRIzol Reagent on Day 7. *: P<0.05, **: P<0.01 (vs. NM-siCont or OM-siCont, Student's t-test, N=3).
HCASMCs were maintained under the same condition with FIGS. 23A-23C. BMP7 was not detected. The mRNA samples from hCASMCs were isolated using TRIzol Reagent on Day 7. *: P<0.05 (vs. OM-siCont, Student's t-test, N=3).
FIG. 35 depicts the effects of PPAR agonists GW-501516 on SLC20A1 gene expression in hCASMCs. HCASMCs were maintained under the same condition with FIGS. 23A-23C. HCASMCs were stimulated by 100 nM GW-501516 (GW). After 18 hours, the mRNA samples were isolated by TRIzol Reagent. **: P<0.01, (vs. Control, Student's t-test, N=3).
RNA preparation and real-time PCR. Total RNA from the cell culture was isolated using TRIZol (Life Technologies). Reverse transcription was performed using the QuantiTect Reverse Transcription Kit (Qiagen). The mRNA expression was determined by TaqMan-based real-time PCR reactions (Life Technologies). The following TaqMan probes were used: 4326315E (human β-actin), (human SLC20A1), (human BMP2), (human BMP4), (human BMP7). The expression levels were normalized to β-actin. Results were calculated using the […] method, and presented as fold increase relative to control.
Background: Quantitative PCR measures a nucleic acid by following its amplification.

Data set [2] concerns hCASMCs. Description: Mineralization assay (Alizarin Red staining, calcium deposition). To be noted: hCASMCs in osteogenic medium with siRNA, Day 21. How it is done: (§1) FIGS. 22A-22C depict the effects of the SORT1, AASS, CROT, IL1R1, ITGBL1, METTL7A and NNMT silencing on calcium deposition and TNAP activity in hCASMCs. HCASMCs were treated with siRNAs in NM. After 3 days, the medium was changed to OM with the siRNA. On Day 21, cells were fixed in 4% formalin for 10 min and washed twice with PBS for Alizarin Red staining. The cells were stained with 2% Alizarin Red solution for 20 min at RT and rinsed twice with water (FIG. 22A). Then, the Alizarin Red was extracted by 10 mM cetylpyridinium chloride and the extracts were measured on the absorbance (540 nm) (FIG. 22B). On Day 14, TNAP activity was determined using Alkaline Phosphatase Activity Colorimetric Assay Kit (FIG. 22C).
FIGS. 23A-23C depict teffects of the CROT silencing on calcium deposition and TNAP activity in hCASMCs. HCASMCs were treated with siRNAs in NM. […] Then, the Alizarin Red was extracted by 10 mM cetylpyridinium chloride and the extracts were measured on the absorbance (540 nm) (FIG. 23B). On Day 14, TNAP activity was determined using Alkaline Phosphatase Activity Colorimetric Assay Kit (FIG. 23C). **: P<0.01, ***: P <0.001 (vs. OM-siControl, Student's t-test, N=3-4). […]
Mineralization assay and activity of tissue non-specific alkaline phosphatase. Mineralized matrix formation was assessed by Alizarin Red staining. […] Aliquots were taken and measured with a spectrophotometer at 540 nm.

Data set [3] deals with TNAP activity in hCASMCs. Put plainly: Tissue non-specific alkaline phosphatase (TNAP) activity in cell cultures. The following applies: hCASMCs in osteogenic medium with siRNA; Day 14. How it is done:
as §1
FIGS. 23A-23C depict teffects of the CROT silencing on calcium deposition and TNAP activity in hCASMCs. HCASMCs were treated with siRNAs in NM. After 3 days, the medium was changed to OM with the siRNA. […] Then, the Alizarin Red was extracted by 10 mM cetylpyridinium chloride and the extracts were measured on the absorbance (540 nm) (FIG. 23B). On Day 14, TNAP activity was determined using Alkaline Phosphatase Activity Colorimetric Assay Kit (FIG. 23C). **: P<0.01, ***: P <0.001 (vs. OM-siControl, Student's t-test, N=3-4). […]
Tissue non-specific alkaline phosphatase (TNAP) activity was measured in cell cultures using the Alkaline Phosphatase Activity Colorimetric Assay Kit (BioVision). […]

“Also recorded” adds a separate entry of the source.

With `Cc1cc(SCc2sc(-c3ccc(C(F)(F)F)cc3)nc2C)ccc1OCC(=O)O` [PPARδ agonist, GW-501516], the SLC20A1 gene expression result in data set [1] (PPARδ agonist, after 24 h) is “suppressed; also recorded: reduced”. In data set [1] (response to PPARδ agonist), the CDKN1A gene expression entry is “affected”, the DUSP1 gene expression result is recorded as “affected”, the HMOX1 gene expression result was “affected” and the SAT1 gene expression entry was “affected”.
Consider “siCROT: siRNA silencing CROT; patent names inhibitory nucleic acid CACUUCAGCUGGCCUAUUA (SEQ ID NO: 1) as CROT inhibitor (listed as RNA, chemistry not given here)”, for which the Ca deposition entry in data set [2] is “decreased”. For the same molecule, the TNAP activity result in data set [3] is reported as “decreased”. Also, in data set [1] (CROT siRNA, Day 7), the HMOX1 expression entry was “induced”.
